Consider 17 compounds from patent publication US20090326003A1, “PYRAZOLO (3, 4-B) PYRIDINE DERIVATIVES AS PDE4 INHIBITORS” (priority 2006, published 2009).

Counter-ions that a name gives are not always drawn.

The experiment deals with T1, PDE4B (human recombinant) (Homo sapiens, UniProt Q07343).
T1 construct: made in house
T1 sequence (Q07343 1-564 isoform Q07343-2): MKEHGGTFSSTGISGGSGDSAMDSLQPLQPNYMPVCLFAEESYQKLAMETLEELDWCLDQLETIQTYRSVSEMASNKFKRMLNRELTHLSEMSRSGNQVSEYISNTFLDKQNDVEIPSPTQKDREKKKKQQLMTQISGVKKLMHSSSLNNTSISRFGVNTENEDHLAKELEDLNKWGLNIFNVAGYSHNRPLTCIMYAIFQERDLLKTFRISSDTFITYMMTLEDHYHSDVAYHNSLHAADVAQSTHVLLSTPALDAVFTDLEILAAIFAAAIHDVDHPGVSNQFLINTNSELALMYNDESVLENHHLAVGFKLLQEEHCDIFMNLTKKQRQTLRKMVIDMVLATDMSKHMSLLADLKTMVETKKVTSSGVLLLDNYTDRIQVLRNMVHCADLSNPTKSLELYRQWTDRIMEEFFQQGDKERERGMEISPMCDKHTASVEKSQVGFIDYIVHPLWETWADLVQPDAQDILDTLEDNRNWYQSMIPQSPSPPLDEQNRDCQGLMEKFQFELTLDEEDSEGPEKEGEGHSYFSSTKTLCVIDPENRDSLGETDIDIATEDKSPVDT
As to the kind of experiment: PDE4B inhibition, fluorescence polarisation (FP) and/or SPA assay. It counts as biochemical. The following applies: n=1 or average of 2 or more readings, accuracy ±about 0.5 log unit, read-out: PDE4B pIC50 (generally in FP assay) (±about 0.5) (converted). From the text:
Human recombinant PDE4B, in particular the 2B splice variant thereof (HSPDE4B2B), is disclosed in WO 94/20079 and also M. M. McLaughlin et al., “A low Km, rolipram-sensitive, cAMP-specific phosphodiesterase from human brain: cloning and expression of cDNA, biochemical characterisation of recombinant protein, and tissue distribution of mRNA”, J. Biol. Chem., 1993, 268, 6470-6476. For example, in Example 1 of WO 94/20079, human recombinant PDE4B is described as being expressed in the PDE-deficient yeast Saccharomyces cerevisiae strain GL62, e.g. after induction by addition of 150 uM CuSO4, and 100,000×g supernatant fractions of yeast cell lysates are described for use in the harvesting of PDE4B enzyme.
The ability of compounds to inhibit catalytic activity at PDE4B or 4D (human recombinant), PDE3 (from bovine aorta), PDE5 (human recombinant) or PDE6 (from bovine retina) can optionally be determined by Scintillation Proximity Assay (SPA) in a 96-well format.
Test compounds (as a solution in DMSO, preferably about 2 microliter (ul) volume of DMSO solution) are preincubated at ambient temperature (room temperature, e.g. 19-23° C.) in Wallac Isoplates (code 1450-514) with PDE enzyme in 50 mM Tris-HCl buffer pH 7.5, 8.3 mM MgCl2, 1.7 mM EGTA, 0.05% (w/v) bovine serum albumin for 10-30 minutes (usually 30 minutes). The enzyme concentration is adjusted so that no more than 20% hydrolysis of the substrate defined below occurs in control wells without compound, during the incubation. For the PDE3, PDE4B and PDE4D assays, [5′,8-3H]Adenosine 3′,5′-cyclic phosphate (Amersham Pharmacia Biotech, code TRK.559; or Amersham Biosciences UK Ltd, Pollards Wood, Chalfont St Giles, Buckinghamshire HP8 4SP, UK) is added to give 0.05 uCi per well and about 10 nM final concentration. For the PDE5 and PDE6 assays, [8-^3H]Guanosine 3′,5′-cyclic phosphate (Amersham Pharmacia Biotech, code TRK.392) is added to give 0.05 uCi per well and about 36 nM final concentration. Plates containing assay mixture, preferably approx. 100 ul volume of assay mixture, are mixed on an orbital shaker for 5 minutes and incubated at ambient temperature for 1 hour. Phosphodiesterase SPA beads (Amersham Pharmacia Biotech, code RPNQ 0150) are added (about 1 mg per well) to terminate the assay. Plates are sealed and shaken and allowed to stand at ambient temperature for 35 minutes to 1 hour (preferably 35 minutes) to allow the beads to settle. Bound radioactive product is measured using a WALLAC TRILUX 1450 Microbeta scintillation counter. For inhibition curves, 10 concentrations (e.g. 1.5 nM-30 uM) of each compound are assayed. Curves are analysed using ActivityBase and XLfit (ID Business Solutions Limited, 2 Ocean Court, Surrey Research Park, Guildford, Surrey GU2 7QB, United Kingdom) Results are expressed as pIC50 values.
The ability of compounds to inhibit catalytic activity at PDE4B (human recombinant) or PDE4D (human recombinant) can optionally be determined by IMAP Fluorescence Polarisation (FP) assay (IMAP Explorer kit, available from Molecular Devices Corporation, Sunnydale, Calif., USA; Molecular Devices code: R8062) in 384-well format.
The IMAP FP assay is able to measure PDE activity in an homogenous, non-radioactive assay format. The FP assay uses the ability of immobilised trivalent metal cations, coated onto nanoparticles (tiny beads), to bind the phosphate group of FI-AMP that is produced on the hydrolysis of fluorescein-labelled (FI) cyclic adenosine mono-phosphate (FI-cAMP) to the non-cyclic FI-AMP form. […] Binding of FI-AMP product to the beads (coated with the immobilised trivalent cations) slows the rotation of the bound FI-AMP and leads to an increase in the fluorescence polarisation ratio of parallel to perpendicular light. Inhibition of the PDE reduces/inhibits this signal increase. […]
With `CCc1nc2c(cnn2CC)c(NC2CCN(C(N)=O)CC2)c1CNC(=O)COc1ccccc1C(=O)NCc1c(CC)nc2c(cnn2CC)c1NC1CCN(C(N)=O)CC1` [Example 16, 4-[(5-{[({[2-({[(4-{[1-(aminocarbonyl)-4-piperidinyl]amino}-1,6-diethyl-1H-pyrazolo[3,4-b]pyridin-5-yl)methyl]amino}carbonyl)phenyl]oxy}acetyl)amino]methyl}-1,6-diethyl-1H-pyrazolo[3,4-b]pyridin-4-yl)amino]-1-piperidinecarboxamide trifluoroacetate], the IC50 was 0.0158 to 0.1 nM.
On to `CCc1nc2c(cnn2CC)c(NC2CCN(C(N)=O)CC2)c1CNC(=O)CS(=O)(=O)CC(=O)NCc1c(CC)nc2c(cnn2CC)c1NC1CCN(C(N)=O)CC1` [Example 12, 4,4′-{sulfonylbis[(1-oxo-2,1-ethanediyl)iminomethanediyl(1,6-diethyl-1H-pyrazolo[3,4-b]pyridine-5,4-diyl)imino]}di(1-piperidinecarboxamide) trifluoroacetate], for which the IC50 is 0.0158 to 0.1 nM.
Take `CCc1nc2c(cnn2CC)c(NC2CCOCC2)c1CNC(=O)Cc1cccc(CC(=O)NCc2c(CC)nc3c(cnn3CC)c2NC2CCOCC2)c1` [Example 8, 2,2′-benzene-1,3-diylbis(N-{[1,6-diethyl-4-(tetrahydro-2H-pyran-4-ylamino)-1H-pyrazolo[3,4-b]pyridin-5-yl]methyl}acetamide)]: the IC50 was 0.126 to 1 nM.
`CCc1nc2c(cnn2CC)c(NC2CCOCC2)c1CNC(=O)c1ccnc(-c2cc(C(=O)NCc3c(CC)nc4c(cnn4CC)c3NC3CCOCC3)ccn2)c1` [Example 31, N,N′-bis{[1,6-diethyl-4-(tetrahydro-2H-pyran-4-ylamino)-1H-pyrazolo[3,4-b]pyridin-5-yl]methyl}-2,2′-bipyridine-4,4′-dicarboxamide]: the IC50 is 0.0158 to 0.1 nM.
In the case of `CCc1nc2c(cnn2CC)c(NC2CCN(C(N)=O)CC2)c1CNC(=O)c1ccc(Oc2ccc(C(=O)NCc3c(CC)nc4c(cnn4CC)c3NC3CCN(C(N)=O)CC3)cc2)cc1` [Example 27, 4,4′-{oxybis[benzene-4,1-diyl(oxomethanediyl)iminomethanediyl(1,6-diethyl-1H-pyrazolo[3,4-b]pyridine-5,4-diyl)imino]}di(1-piperidinecarboxamide)] it was 0.0158 to 0.1 nM.
In the case of `CCc1nc2c(cnn2CC)c(NC2CCOCC2)c1CNC(=O)c1ccc(Cc2ccc(C(=O)NCc3c(CC)nc4c(cnn4CC)c3NC3CCOCC3)cc2)cc1` [Example 5, 4,4′-methanediylbis(N-{[1,6-diethyl-4-(tetrahydro-2H-pyran-4-ylamino)-1H-pyrazolo[3,4-b]pyridin-5-yl]methyl}benzamide)] it was 0.0158 to 0.1 nM; in that of `CCc1nc2c(cnn2CC)c(NC2CCN(C(N)=O)CC2)c1CNC(=O)c1ccc(C(=O)NCc2c(CC)nc3c(cnn3CC)c2NC2CCN(C(N)=O)CC2)cc1` [Example 25, N,N′-bis[(4-{[1-(aminocarbonyl)-4-piperidinyl]amino}-1,6-diethyl-1H-pyrazolo[3,4-b]pyridin-5-yl)methyl]-1,4-benzenedicarboxamide], 0.0158 to 0.1 nM; in that of `CCc1nc2c(cnn2CC)c(NC2CCOCC2)c1CNC(=O)c1cnc(C(=O)NCc2c(CC)nc3c(cnn3CC)c2NC2CCOCC2)cn1` [Example 32, N,N′-bis{[1,6-diethyl-4-(tetrahydro-2H-pyran-4-ylamino)-1H-pyrazolo[3,4-b]pyridin-5-yl]methyl}-2,5-pyrazinedicarboxamide], 0.126 to 1 nM.
In the case of `CCc1nc2c(cnn2CC)c(NC2CCOCC2)c1CNC(=O)CCc1ccc(C(=O)NCc2c(CC)nc3c(cnn3CC)c2NC2CCOCC2)cc1` [Example 1, N-{[1,6-diethyl-4-(tetrahydro-2H-pyran-4-ylamino)-1H-pyrazolo[3,4-b]pyridin-5-yl]methyl}-4-[3-({[1,6-diethyl-4-(tetrahydro-2H-pyran-4-ylamino)-1H-pyrazolo[3,4-b]pyridin-5-yl]methyl}amino)-3-oxopropyl]benzamide] it was 0.0158 to 0.1 nM; in that of `CCc1nc2c(cnn2CC)c(NC2CCOCC2)c1CNC(=O)CCCC(=O)NCc1c(CC)nc2c(cnn2CC)c1NC1CCOCC1` [Example 2, N,N′-bis{[1,6-diethyl-4-(tetrahydro-2H-pyran-4-ylamino)-1H-pyrazolo[3,4-b]pyridin-5-yl]methyl}pentanediamide], 0.126 to 1 nM; in that of `CCc1nc2c(cnn2CC)c(NC2CCOCC2)c1CNC(=O)COCC(=O)NCc1c(CC)nc2c(cnn2CC)c1NC1CCOCC1` [Example 9, 2,2′-oxybis(N-{[1,6-diethyl-4-(tetrahydro-2H-pyran-4-ylamino)-1H-pyrazolo[3,4-b]pyridin-5-yl]methyl}acetamide)], 0.126 to 1 nM.
`CCc1nc2c(cnn2CC)c(NC2CCN(C(N)=O)CC2)c1CNC(=O)C1CCC(C(=O)NCc2c(CC)nc3c(cnn3CC)c2NC2CCN(C(N)=O)CC2)CC1` (centres unmarked) [Example 11, N,N′-bis[(4-{[1-(aminocarbonyl)-4-piperidinyl]amino}-1,6-diethyl-1H-pyrazolo[3,4-b]pyridin-5-yl)methyl]-1,4-cyclohexanedicarboxamide trifluoroacetate]: the IC50 was 0.0158 to 0.1 nM.
With `CCc1nc2c(cnn2CC)c(NC2CCN(C(N)=O)CC2)c1CNC(=O)c1ccc(Cc2ccc(C(=O)NCc3c(CC)nc4c(cnn4CC)c3NC3CCN(C(N)=O)CC3)cc2)cc1` [Example 18, 4,4′-{methanediylbis[benzene-4,1-diyl(oxomethanediyl)iminomethanediyl(1,6-diethyl-1H-pyrazolo[3,4-b]pyridine-5,4-diyl)imino]}di(1-piperidinecarboxamide) trifluoroacetate] the figure was 0.0158 to 0.1 nM; with `CCc1nc2c(cnn2CC)c(NC2CCOCC2)c1CNC(=O)CC(C)(C)CC(=O)NCc1c(CC)nc2c(cnn2CC)c1NC1CCOCC1` [Example 3, N,N′-bis{[1,6-diethyl-4-(tetrahydro-2H-pyran-4-ylamino)-1H-pyrazolo[3,4-b]pyridin-5-yl]methyl}-3,3-dimethylpentanediamide], 0.0158 to 0.1 nM.
In the case of `CCc1nc2c(cnn2CC)c(NC2CCN(C(N)=O)CC2)c1CNC(=O)Cc1cccc(C(=O)NCc2c(CC)nc3c(cnn3CC)c2NC2CCN(C(N)=O)CC2)c1` [Example 13, 4-({5-[({[3-({[(4-{[1-(aminocarbonyl)-4-piperidinyl]amino}-1,6-diethyl-1H-pyrazolo[3,4-b]pyridin-5-yl)methyl]amino}carbonyl)phenyl]acetyl}amino)methyl]-1,6-diethyl-1H-pyrazolo[3,4-b]pyridin-4-yl}amino)-1-piperidinecarboxamide trifluoroacetate] it was 0.126 to 1 nM.
As to `CCc1nc2c(cnn2CC)c(NC2CCOCC2)c1CNC(=O)CCc1ccccc1C(=O)NCc1c(CC)nc2c(cnn2CC)c1NC1CCOCC1` [Example 7, N-{[1,6-diethyl-4-(tetrahydro-2H-pyran-4-ylamino)-1H-pyrazolo[3,4-b]pyridin-5-yl]methyl}-2-[3-({[1,6-diethyl-4-(tetrahydro-2H-pyran-4-ylamino)-1H-pyrazolo[3,4-b]pyridin-5-yl]methyl}amino)-3-oxopropyl]benzamide], the IC50 was 0.0158 to 0.1 nM.
With `CCc1nc2c(cnn2CC)c(NC2CCOCC2)c1CNC(=O)c1ccc(C(=O)NCc2c(CC)nc3c(cnn3CC)c2NC2CCOCC2)cc1` [Example 22, N,N′-bis{[1,6-diethyl-4-(tetrahydro-2H-pyran-4-ylamino)-1H-pyrazolo[3,4-b]pyridin-5-yl]methyl}-1,4-benzenedicarboxamide] the figure was 0.126 to 1 nM.
